Experimental data published in PubChem BioAssay AID1259411 (Chemical Carcinogenesis Research Information System (CCRIS), 2018).
Activity calls are given as the source filed them. No rule for the calls is given here.

Tested on: rodent carcinogenicity bioassays, tumor incidence
Experiment: CCRIS carcinogenicity studies
How it was run: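 Archive of carcinogenicity, mutagenicity, tumor promotion and tumor inhibition results drawn from journals, NCI reports and other sources, expert-reviewed; covers 1985-2011 and is no longer updated.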

## Nc1ccccc1-c1ccccc1
Species: MOUSE, Strain/Sex: B6C3F1/FEMALE, Route: ORAL, Dose: 0, 1000, 3000 PPM IN DIET FOR 103 WK (STUDY DURATION: 103 WK), Dose: 0, 1000, 3000 PPM IN DIET FOR 103 WK (STUDY DURATION: 103 WK), Tumor Site: Type of Lesion: BLOOD VESSELS: HEMANGIOMA, HEMANGIOSARCOMA
  carcinogen call: active; positive
Species: MOUSE, Strain/Sex: B6C3F1/MALE, Route: ORAL, Dose: 0, 1000, 3000 PPM IN DIET FOR 103 WK (STUDY DURATION: 103 WK), Dose: 0, 1000, 3000 PPM IN DIET FOR 103 WK (STUDY DURATION: 103 WK), Tumor Site: Type of Lesion: SPLEEN: HEMANGIOSARCOMA
  carcinogen call: equivocal
Species: RAT, Strain/Sex: F344/FEMALE, Route: ORAL, Dose: 0, 1000, 3000 PPM IN DIET FOR 103 WK (STUDY DURATION: 103 WK), Dose: 0, 1000, 3000 PPM IN DIET FOR 103 WK (STUDY DURATION: 103 WK)
  carcinogen call: inactive; negative
Species: RAT, Strain/Sex: F344/MALE, Route: ORAL, Dose: 0, 1000, 3000 PPM IN DIET FOR 103 WK (STUDY DURATION: 103 WK), Dose: 0, 1000, 3000 PPM IN DIET FOR 103 WK (STUDY DURATION: 103 WK)
  carcinogen call: inactive; negative

## O=[N+]([O-])c1ccc(/C=C/c2cnc(N(CO)CO)nn2)o1
Species: RAT, Strain/Sex: WISTAR/MALE, Route: ORAL, Dose: 0, 350, 1750, 3500 PPM IN POWDERED BASAL DIET (STUDY DURATION: 35 WK), Dose: 0, 350, 1750, 3500 PPM IN POWDERED BASAL DIET (STUDY DURATION: 35 WK), Tumor Site: Type of Lesion: FORESTOMACH, SQUAMOUS CELL PAPILLOMA, DUODENUM: ADENOCARCINOMA, SMALL INTESTINE: ADENOCARCINOMA, Tumor Site: Type of Lesion: FORESTOMACH, SQUAMOUS CELL PAPILLOMA, DUODENUM: ADENOCARCINOMA, SMALL INTESTINE: ADENOCARCINOMA
  carcinogen call: active; positive

## c1ccc2c(c1)cc1ccc3cc4ccccc4c4ccc2c1c34
Species: HAMSTER, Route: SUBCUTANEOUS, Tumor Site: Type of Lesion: INJECTION SITE
  carcinogen call: active; positive
Species: MOUSE, Route: DERMAL, Tumor Site: Type of Lesion: INTEGUMENTARY SYSTEM (SKIN)
  carcinogen call: active; positive
Species: MOUSE, Route: SUBCUTANEOUS, Tumor Site: Type of Lesion: INJECTION SITE
  carcinogen call: active; positive

## C/C(=C(\CCOC(=O)c1ccccc1)SC(=O)c1ccccc1)N(C=O)Cc1cnc(C)nc1N
Species: RAT, Strain/Sex: SPRAGUE-DAWLEY/FEMALE, Route: ORAL, Dose: 0, 1000, 10000 PPM IN DIET FOR DURATION OF STUDY (STUDY DURATION: 105 WK), Dose: 0, 1000, 10000 PPM IN DIET FOR DURATION OF STUDY (STUDY DURATION: 105 WK)
  carcinogen call: inactive; negative
Species: RAT, Strain/Sex: SPRAGUE-DAWLEY/MALE, Route: ORAL, Dose: 0, 1000, 10000 PPM IN DIET FOR DURATION OF STUDY (STUDY DURATION: 105 WK), Dose: 0, 1000, 10000 PPM IN DIET FOR DURATION OF STUDY (STUDY DURATION: 105 WK)
  carcinogen call: inactive; negative

## O=C/C(Br)=C/c1ccccc1
Species: MOUSE, Strain/Sex: SLC:DDY/FEMALE, Route: DERMAL, Dose: 0, 0.25, 1, 4% IN OLIVE OIL 2/WK FOR 79 WK (STUDY DURATION: 79 WK), Dose: 0, 0.25, 1, 4% IN OLIVE OIL 2/WK FOR 79 WK (STUDY DURATION: 79 WK)
  carcinogen call: inactive; negative

## C[C@H]([C@H](O)CCC(C)(C)O)[C@H]1CC[C@@]2(O)C3=CC(=O)[C@@H]4C[C@@H](O)[C@@H](O)C[C@]4(C)[C@H]3CC[C@]12C
Species: MOUSE, Strain/Sex: SWISS/FEMALE, Route: ORAL, Dose: 0, 3 PPM/25 G BW IN DIET FOR 22 MO (STUDY DURATION: 22 MO), Tumor Site: Type of Lesion: MAMMARY GLAND: TUMOR, LUNG: TUMOR
  carcinogen call: active; positive
Species: MOUSE, Strain/Sex: SWISS/MALE, Route: ORAL, Dose: 0, 3 PPM/25 G BW IN DIET FOR 22 MO (STUDY DURATION: 22 MO), Tumor Site: Type of Lesion: LUNG: TUMOR
  carcinogen call: active; positive

## Cc1c(O)cc2c(c1C)OC(C)(CCCC(C)CCCC(C)CCCC(C)C)CC2 (configuration not stated)
Species: MOUSE, Strain/Sex: 6HF1/MALE, Route: ORAL, Dose: 0, 5% IN BASAL DIET FOR 104 WK (STUDY DURATION: 104 WK), Tumor Site: Type of Lesion: LIVER: TUMOR
  carcinogen call: active; positive

## O=C1O[C@H]([C@@H](O)CO)C(O)=C1O
Species: MOUSE, Strain/Sex: B6C3F1/FEMALE, Route: ORAL, Dose: 0, 25000, 50000 PPM IN DIET FOR 103 WK, Dose: 0, 25000, 50000 PPM IN DIET FOR 103 WK
  carcinogen call: inactive; negative
Species: MOUSE, Strain/Sex: B6C3F1/MALE, Route: ORAL, Dose: 0, 25000, 50000 PPM IN DIET FOR 103 WK, Dose: 0, 25000, 50000 PPM IN DIET FOR 103 WK
  carcinogen call: inactive; negative
Species: RAT, Strain/Sex: F344/FEMALE, Route: ORAL, Dose: 0, 25000, 50000 PPM IN DIET FOR 103 WK, Dose: 0, 25000, 50000 PPM IN DIET FOR 103 WK
  carcinogen call: inactive; negative
Species: RAT, Strain/Sex: F344/MALE, Route: ORAL, Dose: 0, 1, 5, 7% IN DIET OF MALE RATS, PARENTAL GENERATION ALSO FED SODIUM ASCORBATE FOR 4 WK BEFORE MATING THEN CONTINUING I, Dose: 0, 1, 5, 7% IN DIET OF MALE RATS, PARENTAL GENERATION ALSO FED SODIUM ASCORBATE FOR 4 WK BEFORE MATING THEN CONTINUING I
  carcinogen call: inactive; negative
Species: RAT, Strain/Sex: F344/MALE, Route: ORAL, Dose: 0, 25000, 50000 PPM IN DIET FOR 103 WK, Dose: 0, 25000, 50000 PPM IN DIET FOR 103 WK
  carcinogen call: inactive; negative
Species: Rat, Strain/Sex: F344/Male (9-15/group), Route: Oral, Dose: 0, 1%, 1% with 0.2% sodium nitrite in diet for 32 wk, study duration 32 wk in surgically altered rats to produce chronic, Dose: 0, 1%, 1% with 0.2% sodium nitrite in diet for 32 wk, study duration 32 wk in surgically altered rats to produce chronic, Tumor Site: Type of Lesion: Esophagus examined
  carcinogen call: inactive; negative (significant increase in hyperplasia observed in combined chemical grou
Species: Rat, Strain/Sex: Non-tg/Male, Route: Oral, Dose: 5% sodium ascorbate in diet, continuous, for 57 wk until sacrifice, Tumor Site: Type of Lesion: Total tumor-bearing animals (20.0% in experimental animals vs 25.0% in controls), no bladder tumors
  carcinogen call: inactive; negative. parallel experiment in hras128 rat line was conducted to determine bla

## NC1=NCN([C@@H]2O[C@H](CO)[C@@H](O)[C@H]2O)C(=O)N1
Species: RAT, Strain/Sex: F344/MALE, Route: INTRAPERITONEAL, Dose: 0, 50 MG/KG IN 0.9% SALINE 3/WK FOR 1 YR (STUDY DURATION: 1 YR)
  carcinogen call: inactive; negative

## CCCCCCCN(C)N=O
Species: HAMSTER, Strain/Sex: SYRIAN/FEMALE, Route: GAVAGE, Dose: 0, 6.8 MG/KG 1/WK FOR 40 WK (TOTAL DOSE: 0; 2.1 MMOL) (STUDY DURATION: LIFETIME), Dose: 0, 6.8 MG/KG 1/WK FOR 40 WK (TOTAL DOSE: 0; 2.1 MMOL) (STUDY DURATION: LIFETIME), Tumor Site: Type of Lesion: LIVER: CHOLANGIOMA, LUNG: ALVEOLAR/BRONCHIAL CARCINOMA, ALVEOLAR/BRONCHIAL ADENOMA, ADENOSQUAMOUS CARCINOMA, NASAL MUCOS, Tumor Site: Type of Lesion: LIVER: CHOLANGIOMA, LUNG: ALVEOLAR/BRONCHIAL CARCINOMA, ALVEOLAR/BRONCHIAL ADENOMA, ADENOSQUAMOUS CARCINOMA, NASAL MUCOS
  carcinogen call: active; positive
Species: HAMSTER, Strain/Sex: SYRIAN/MALE, Route: GAVAGE, Dose: 0, 6.8 MG/KG 1/WK FOR 40 WK (TOTAL DOSE: 0; 2.1 MMOL) (STUDY DURATION: LIFETIME), Dose: 0, 6.8 MG/KG 1/WK FOR 40 WK (TOTAL DOSE: 0; 2.1 MMOL) (STUDY DURATION: LIFETIME), Tumor Site: Type of Lesion: LIVER: CHOLANGIOMA, HEMANGIOSARCOMA, LUNG: ALVEOLAR/BRONCHIAL CARCINOMA, ALVEOLAR/BRONCHIAL ADENOMA, ADENOSQUAMOUS CARCI
  carcinogen call: active; positive

## c1ccc2nc3c(ccc4ccccc43)cc2c1
Species: MOUSE, Strain/Sex: SWISS/FEMALE, Route: INTRAPERITONEAL, Dose: 0, 1.05 UMOL GIVEN AS 150 NMOL IN 5 µL DMSO WITHIN 24 HR OF BIRTH, 300 NMOL IN 10 µL DMSO ON D 8 OF LIFE, AND 600 NMOL I, Tumor Site: Type of Lesion: LUNG: ADENOMA
  carcinogen call: active; positive
Species: MOUSE, Strain/Sex: SWISS/MALE, Route: INTRAPERITONEAL, Dose: 0, 1.05 UMOL GIVEN AS 150 NMOL IN 5 µL DMSO WITHIN 24 HR OF BIRTH, 300 NMOL IN 10 µL DMSO ON D 8 OF LIFE, AND 600 NMOL I, Tumor Site: Type of Lesion: LUNG: ADENOMA, LIVER: NEOPLASTIC NODULE
  carcinogen call: active; positive
Species: RAT, Strain/Sex: OSBORNE-MENDEL/FEMALE, Route: LUNG IMPLANT, Dose: 0, 0.1, 0.3, 1.0 MG IN BEESWAX/TRICAPRYLIN (STUDY DURATION: LIFETIME), Dose: 0, 0.1, 0.3, 1.0 MG IN BEESWAX/TRICAPRYLIN (STUDY DURATION: LIFETIME)
  carcinogen call: inactive; negative
